Literature values as cited in US20040198651A1, “Secreted proteins” (priority 2001, published 2004).

Legend:
[1] = relative to progesterone
[2] = intranasal; relative to hydrocortisone

| Compound | pharmacological activity greater than progesterone [1] | anti-inflammatory and vasoconstrictive effects greater than those produced by hydrocortisone [2] [times] |
| --- | --- | --- |
| 6α-methyl-17-hydroxyprogesterone [medroxyprogesterone] | about 15 times | – |
| C[C@H]1C[C@H]2[C@@H]3CCC4=CC(=O)C=C[C@]4(C)[C@@]3(Cl)[C@@H](O)C[C@]2(C)[C@@]1(O)C(=O)CO [beclomethasone] | – | 5000 |
